Results published in patent US10160762B2, “6-alkyl dihydropyrazolopyrimidinone compounds as PDE2 inhibitors” (Merck Sharp & Dohme Corp., priority 2015, dated 2018).
Read-outs that look alike come from different tables or passages of the source.

Target: T1, human PDE2A1 (Homo sapiens, UniProt O00408)
T1 construct: GST; purchased BPS Bioscience (San Diego, Calif.) 60020; host or cells: insect cells
Assay: IMAP FP PDE assay, human PDE2A1
Format: biochemical
Method in brief: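 GST-tagged human PDE2A1 from insect cells; substrate 50 nM FAM-cAMP containing 1000 nM cGMP in Tris pH 7.2/MgCl2/DTT buffer, enzyme giving 20% conversion. 60 min at room temperature, IMAP binding reagent, fluorescence polarization read. Apparent Ki from FP readings using apparent KM 10,000 nM; ten-point 3-fold titrations.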

[1] = Lab B, read-out: Human PDE2 Ki (nM) Lab B
[2] = Lab A, read-out: Human PDE2 Ki (nM) Lab A

T1 sequence (O00408 1-920 isoform O00408-2): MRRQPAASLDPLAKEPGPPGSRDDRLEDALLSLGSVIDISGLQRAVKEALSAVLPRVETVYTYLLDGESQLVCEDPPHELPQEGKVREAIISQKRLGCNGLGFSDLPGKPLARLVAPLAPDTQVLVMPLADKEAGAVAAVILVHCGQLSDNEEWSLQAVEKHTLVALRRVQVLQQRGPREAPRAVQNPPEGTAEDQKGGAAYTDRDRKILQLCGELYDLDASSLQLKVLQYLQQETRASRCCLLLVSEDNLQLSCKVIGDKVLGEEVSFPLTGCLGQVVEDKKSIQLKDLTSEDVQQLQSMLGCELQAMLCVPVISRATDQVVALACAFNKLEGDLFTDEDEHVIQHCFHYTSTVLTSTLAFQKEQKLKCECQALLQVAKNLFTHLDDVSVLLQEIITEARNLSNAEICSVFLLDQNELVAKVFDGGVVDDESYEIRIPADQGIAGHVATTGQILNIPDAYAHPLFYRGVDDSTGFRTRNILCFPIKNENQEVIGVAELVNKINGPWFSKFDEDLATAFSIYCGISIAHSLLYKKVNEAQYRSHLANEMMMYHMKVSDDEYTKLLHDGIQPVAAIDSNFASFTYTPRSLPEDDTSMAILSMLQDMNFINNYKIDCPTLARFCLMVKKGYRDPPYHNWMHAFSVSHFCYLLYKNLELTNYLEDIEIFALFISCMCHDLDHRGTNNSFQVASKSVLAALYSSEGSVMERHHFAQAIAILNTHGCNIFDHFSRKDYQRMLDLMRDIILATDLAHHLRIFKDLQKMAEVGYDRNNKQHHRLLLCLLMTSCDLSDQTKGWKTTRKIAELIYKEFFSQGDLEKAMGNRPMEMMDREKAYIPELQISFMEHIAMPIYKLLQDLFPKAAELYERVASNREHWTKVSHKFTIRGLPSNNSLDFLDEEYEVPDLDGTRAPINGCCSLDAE

Row | Compound | Ki [1] | Ki [2]
1 | COc1ccc(Cc2nc3c(c(C(F)F)nn3C(C)c3ccc(C(F)(F)F)cc3)c(=O)[nH]2)cc1OC (single isomer, unassigned) [Example 197] | 0.23 nM | 
2 | Cc1nn(C(C)c2ccc(C(F)(F)F)cc2)c2nc(Cc3cccc(O)c3)[nH]c(=O)c12 (stereo not drawn) [Example 30, 6-(3-Hydroxybenzyl)-3-methyl-1-(1-(4-(trifluoromethyl)phenyl)ethyl)-1H-pyrazolo[3,4-d]pyrimidin-4(5H)-one] | 12 nM | 4.6 nM
3 | Cc1nc2c(c(CF)nn2C2(c3ccc(C(F)(F)F)cc3)CCC2)c(=O)[nH]1 [Example 202, 3-(Fluoromethyl)-6-methyl-1-(1-(4-(trifluoromethyl)phenyl)cyclobutyl)-1H-pyrazolo[3,4-d]pyrimidin-4(5H)-one] | 2.9 nM | 
4 | COc1cccc(-c2nc3c(c(C)nn3C(C)c3ccc(C(F)(F)F)cc3)c(=O)[nH]2)c1 (stereo not drawn) [Example 47, 6-(3-Methoxyphenyl)-3-methyl-1-{1-[4-(trifluoromethyl)phenyl]ethyl}-1,5-dihydro-4H-pyrazolo[3,4-d]pyrimidin-4-one] |  | 17 nM
5 | Cc1nc(-c2nc3c(c(C)nn3C(C)c3ccc(C(F)(F)F)cc3)c(=O)[nH]2)c(C)o1 (stereo not drawn) [Example 54, 6-(2,5-Dimethyl-1,3-oxazol-4-yl)-3-methyl-1-{1-[4-(trifluoromethyl)phenyl]ethyl}-1,5-dihydro-4H-pyrazolo[3,4-d]pyrimidin-4-one] |  | 12 nM
6 | Cc1nc2c(c(CCl)nn2C(c2ccc(C(F)(F)F)cc2)C2CC2)c(=O)[nH]1 (stereo not drawn) [Example 232, 3-(chloromethyl)-1-(cyclopropyl(4-(trifluoromethyl)phenyl)methyl)-6-methyl-1H-pyrazolo[3,4-d]pyrimidin-4(5H)-one] | 0.7 nM | 0.27 nM
7 | COc1ccc(Cc2nc3c(c(C)nn3C(C)c3ccc(C(F)(F)F)cc3)c(=O)[nH]2)cc1OC (stereo not drawn) [Example 44, 6-(3,4-Dimethoxybenzyl)-3-methyl-1-{1-[4-(trifluoromethyl)phenyl]ethyl}-1,5-dihydro-4H-pyrazolo[3,4-d]pyrimidin-4-one] |  | 2.1 nM
8 | CCc1nc2c(c(C)nn2C(C)c2ccc(C(F)(F)F)cc2)c(=O)[nH]1 (stereo not drawn) [Example 38, 6-Ethyl-3-methyl-1-{1-[4-(trifluoromethyl)phenyl]ethyl}-1,5-dihydro-4H-pyrazolo[3,4-d]pyrimidin-4-one] |  | 28 nM
9 | Cc1nc2c(c(CO)nn2C(c2ccc(C(F)(F)F)cc2)C(F)(F)F)c(=O)[nH]1 (stereo not drawn) [Example 6, 3-(Hydroxymethyl)-6-methyl-1-(2,2,2-trifluoro-1-(4-(trifluoromethyl)phenyl)ethyl)-1H-pyrazolo[3,4-d]pyrimidin-4(5H)-one] | 3.1 nM | 

Continued, values first:

Row | Ki [1] | Ki [2] | Compound
10 | 0.7 nM |  | Cc1nc2c(c(CF)nn2C(C)c2ccc(OC(F)(F)F)c(F)c2)c(=O)[nH]1 (single isomer, unassigned) [Example 217, (S)- or (R)-1-(1-(3-Fluoro-4-(trifluoromethoxy)phenyl)ethyl)-3-(fluoromethyl)-6-methyl-1H-pyrazolo[3,4-d]pyrimidin-4(5H)-one]
11 | 2.6 nM |  | Cc1nc2c(c(CF)nn2C(c2ccc(C(F)(F)F)cc2)C(F)(F)F)c(=O)[nH]1 (stereo not drawn) [Example 201, 3-(Fluoromethyl)-6-methyl-1-(2,2,2-trifluoro-1-(4-(trifluoromethyl)phenyl)-ethyl)-1H-pyrazolo[3,4-d]pyrimidin-4(5H)-one]
12 | 0.65 nM |  | Cc1nc2c(c(CF)nn2C(C)c2ccc(CC(F)(F)F)cc2)c(=O)[nH]1 (single isomer, unassigned) [Example 211, (S)- or (R)-3-(Fluoromethyl)-6-methyl-1-(1-(4-(2,2,2-trifluoroethyl)phenyl)ethyl)-1H-pyrazolo[3,4-d]pyrimidin-4(5H)-one]
13 | 3.6 nM | 1.5 nM | Cc1nc2c(c(CF)nn2C(C)c2ccc(C(F)(F)F)c(F)c2)c(=O)[nH]1 (stereo not drawn) [Example 230, 1-(1-(3-Fluoro-4-(trifluoromethyl)phenyl)ethyl)-3-(fluoromethyl)-6-methyl-1H-pyrazolo[3,4-d]pyrimidin-4(5H)-one]
14 |  | 50 nM | Cc1nn(C(C)c2ccc(C(F)(F)F)cc2)c2nc(CF)[nH]c(=O)c12 (stereo not drawn) [Example 51, 6-(Fluoromethyl)-3-methyl-1-{1-[4-(trifluoromethyl)phenyl]ethyl}-1,5-dihydro-4H-pyrazolo[3,4-d]pyrimidin-4-one]
15 | 5.3 nM | 1.8 nM | Cc1nc2c(c(CO)nn2C(C)c2ccc(C(F)(F)F)c(F)c2)c(=O)[nH]1 (stereo not drawn) [Example 1, 1-(1-(3-Fluoro-4-(trifluoromethyl)phenyl)ethyl)-3-(hydroxymethyl)-6-methyl-1H-pyrazolo[3,4-d]pyrimidin-4(5H)-one]
16 | 9.5 nM | ~5.9 nM | Cc1nc2c(c(C(F)F)nn2C(C)c2ccc(C(F)(F)F)cc2)c(=O)[nH]1 (stereo not drawn) [Example 166, 3-(Difluoromethyl)-6-methyl-1-{1-[4-(trifluoromethyl)phenyl]ethyl}-1,5-dihydro-4H-pyrazolo[3,4-d]pyrimidin-4-one]
